Results from patent US10011615B2, “Heterobicyclo-substituted [1,2,4]triazolo[1,5-c]quinazolin-5-amine compounds with A2A anatagonist properties” (Merck Sharp & Dohme Corp., priority 2012, dated 2018).
pEC50: −log10 of the molar value. Structures can show the parent of a compound that is named as a salt.

biological target: T1, human A2a receptor (Homo sapiens, UniProt P29274); experiment: A2a receptor competition binding assay using Scintillation Proximity technology; conditions: membranes from HEK293 cells expressing human A2a receptor; 0.5 nM tritiated radioligand; SPA beads; 1 h room temperature
T1 construct: purchased Perkin-Elmer RBHA2AM400UA; host or cells: HEK293 cell membranes
In short: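 Membranes of HEK293 cells expressing human A2a, pretreated with adenosine deaminase, incubated 1 h at room temperature with 0.5 nM tritiated pyrazolotriazolopyrimidine antagonist (final) and compound (3000 to 0.15 nM) on WGA SPA beads in Ca/Mg-free PBS with 10 mM MgCl2. Ki from EC50 via Cheng-Prusoff.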

T1 sequence (P29274 whole entry): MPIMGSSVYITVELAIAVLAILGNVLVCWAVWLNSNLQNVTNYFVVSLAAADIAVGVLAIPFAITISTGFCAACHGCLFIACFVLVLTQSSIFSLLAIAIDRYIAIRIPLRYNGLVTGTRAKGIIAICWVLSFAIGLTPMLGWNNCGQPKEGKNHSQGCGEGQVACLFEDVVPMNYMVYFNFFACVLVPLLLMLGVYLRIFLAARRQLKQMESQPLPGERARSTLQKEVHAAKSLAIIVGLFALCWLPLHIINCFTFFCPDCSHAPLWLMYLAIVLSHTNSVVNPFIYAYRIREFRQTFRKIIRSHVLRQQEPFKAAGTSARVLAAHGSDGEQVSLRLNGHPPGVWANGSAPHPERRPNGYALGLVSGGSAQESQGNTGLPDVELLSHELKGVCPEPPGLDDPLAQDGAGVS

| Structure (SMILES) | pEC50 |
| --- | --- |
| COc1cccc2c1nc(N)n1nc(CCCN3Cc4ccc(C(F)(F)F)cc4C3)nc21 [Ex-230, 7-methoxy-2-(3-(5-(trifluoromethyl)isoindolin-2-yl)propyl)-[1,2,4]triazolo[1,5-c]quinazolin-5-amine] | 8.24 |
| COc1cccc2c1nc(N)n1nc(CCN3Cc4oc(C)nc4C(C)(C)C3)nc21 [Ex-235, 7-Methoxy-2-(2-(2,7,7-trimethyl-6,7-dihydro-oxazolo[5,4-c]pyridin-5(4H)-yl)ethyl)-[1,2,4]triazolo[1,5-c]quinazolin-5-amine, TFA] | 8.55 |
| COc1cccc2c1nc(N)n1nc(CCN3CCc4nc(C)oc4C3C)nc21 (stereo not drawn) [Ex-236, 2-(2-(2,4-dimethyl-6,7-dihydrooxazolo[5,4-c]pyridin-5(4H)-yl)ethyl)-7-methoxy-[1,2,4]triazolo[1,5-c]quinazolin-5-amine] | 8.85 |
| COc1cccc2c1nc(N)n1nc(CCN3Cc4oc(C)nc4CC3C)nc21 (stereo not drawn) [Ex-237, 2-(2-(2,6-dimethyl-6,7-dihydrooxazolo[5,4-c]pyridin-5(4H)-yl)ethyl)-7-methoxy-[1,2,4]triazolo[1,5-c]quinazolin-5-amine] | 8.46 |
| COc1cccc2c1nc(N)n1nc(CCN3Cc4nc(C5CC5)sc4C3)nc21 [Ex-241, 2-(2-(2-cyclopropyl-4H-pyrrolo[3,4-d]thiazol-5(6H)-yl)ethyl)-7-methoxy-[1,2,4]triazolo[1,5-c]quinazolin-5-amine] | 8.14 |
| COc1cccc2c1nc(N)n1nc(CCN3Cc4nc(C(C)C)sc4C3)nc21 [Ex-242, 2-(2-(2-isopropyl-4H-pyrrolo[3,4-d]thiazol-5(6H)-yl)ethyl)-7-methoxy-[1,2,4]triazolo[1,5-c]quinazolin-5-amine] | 10.00 |
| CCc1nc2c(s1)CN(CCc1nc3c4cccc(OC)c4nc(N)n3n1)C2 [Ex-243, 2-(2-(2-ethyl-4H-pyrrolo[3,4-d]thiazol-5(6H)-yl)ethyl)-7-methoxy-[1,2,4]triazolo[1,5-c]quinazolin-5-amine] | 8.89 |
| COc1cccc2c1nc(N)n1nc(CCN3Cc4nc(C)oc4C3)nc21 [Ex-244, 7-methoxy-2-(2-(2-methyl-4H-pyrrolo[3,4-d]oxazol-5(6H)-yl)ethyl)-[1,2,4]triazolo[1,5-c]quinazolin-5-amine] | 9.52 |
| COc1cccc2c1nc(N)n1nc(CCN3Cc4nc(C5CC5)oc4C3)nc21 [Ex-245] | 9.00 |
| COc1cccc2c1nc(N)n1nc(CCN3Cc4cnn(C)c4C3)nc21 [Ex-246, 7-methoxy-2-(2-(1-methylpyrrolo[3,4-c]pyrazol-5(1H,4H,6H)-yl)ethyl)-[1,2,4]triazolo[1,5-c]quinazolin-5-amine] | 8.27 |
| COc1cccc2c1nc(N)n1nc(C[C@@H](C)N3Cc4nc(C)oc4C3)nc21 [Ex-247, (R)-7-methoxy-2-(2-(2-methyl-4H-pyrrolo[3,4-d]oxazol-5(6H)-yl)propyl)-[1,2,4]triazolo[1,5-c]quinazolin-5-amine] | 9.70 |
| CC[C@H](Cc1nc2c3cccc(OC)c3nc(N)n2n1)N1Cc2nc(C)oc2C1 [Ex-248, (R)-7-methoxy-2-(2-(2-methyl-4H-pyrrolo[3,4-d]oxazol-5(6H)-yl)butyl)-[1,2,4]triazolo[1,5-c]quinazolin-5-amine] | 9.00 |
